Laboratory results as given in US20070144540A1, “Drug delivery through application in nails” (TLT Medical Ltd., priority 2004, published 2007).

Test: in-vitro nail permeation assay in Franz-type diffusion cells
Assay type: in vitro ADME, human
Conditions: formulations with 5% and 10% (w/w) terbinafine in the vehicle of Table 3; nails with 400 orifices/cm^2, depth 0.5 mm (50% to 70% of nail plate thickness); single dose of 100 μL; 30° C.; up to 72 hours
Experimental: Franz-cells comprise two chambers separated by the nail plate. The radiolabelled [^14C]-terbinafine containing transungual formulations were applied in the donor upper chamber and the receptor chamber is filled with a buffer to simulate the human physiological conditions. To account for the fact the nails are hard and curved, wetted nails are clamped between two flexible flat silicone polymer disks. The temperature of the cells was kept a 30° C. using a circulating water bath. Magnetic stirrer bars were used to ensure receptor uniformity throughout an experiment.
The nail permeation assays consisted of exposing the dorsal side of the nail plates to the investigated formulations while monitoring the appearance the amount of radiolabelled [^14C]-terbinafine on the ventral side by […] in the receptor fluid chamber of the Franz cells. In all cases a single dose of 100 μL was applied in the nail dorsal side. 100 μL of buffer were taken for each time point for LSC measurement which was replaced by buffer in order to keep the total buffer volume constant. The sampling time points were 0, 1, 3, 5, 7, 24, 32, 48, 52, 55 and 72 hours.
Human cadaveric thumb toenails used in the permeation assays were harvested from diseased adults (age >50 years old) in order to match thickness and consistence of the nails of the patient age group having a higher incidence to onychomycosis. […]

Q: With `CN(C/C=C/C#CC(C)(C)C)Cc1cccc2ccccc12` [terbinafine] as the compound, how does the “terbinafine permeation fluxes in laser pre-treated nails versus untreated nails” value read?
A: The value was “three to four times higher”.
